This is an account of results in ChEMBL document CHEMBL2069231, “Combining pharmacophore, docking and substructure search approaches to identify and optimize novel B-RafV600E inhibitors” (Bioorg Med Chem Lett, 2012).

The structures appear in SMILES notation. A value given as a limit tells only on which side of the number the result lay.

The target in assay [1] is Serine/threonine-protein kinase B-raf (Homo sapiens, UniProt P15056, V600E). Nature of the assay: Inhibition of BRAF V600E mutant by ELISA. On the technique in general: An ELISA detects its analyte on a solid surface through an enzyme-linked reagent.
Sequence of Serine/threonine-protein kinase B-raf (P15056 2-766 V600E limits assumed): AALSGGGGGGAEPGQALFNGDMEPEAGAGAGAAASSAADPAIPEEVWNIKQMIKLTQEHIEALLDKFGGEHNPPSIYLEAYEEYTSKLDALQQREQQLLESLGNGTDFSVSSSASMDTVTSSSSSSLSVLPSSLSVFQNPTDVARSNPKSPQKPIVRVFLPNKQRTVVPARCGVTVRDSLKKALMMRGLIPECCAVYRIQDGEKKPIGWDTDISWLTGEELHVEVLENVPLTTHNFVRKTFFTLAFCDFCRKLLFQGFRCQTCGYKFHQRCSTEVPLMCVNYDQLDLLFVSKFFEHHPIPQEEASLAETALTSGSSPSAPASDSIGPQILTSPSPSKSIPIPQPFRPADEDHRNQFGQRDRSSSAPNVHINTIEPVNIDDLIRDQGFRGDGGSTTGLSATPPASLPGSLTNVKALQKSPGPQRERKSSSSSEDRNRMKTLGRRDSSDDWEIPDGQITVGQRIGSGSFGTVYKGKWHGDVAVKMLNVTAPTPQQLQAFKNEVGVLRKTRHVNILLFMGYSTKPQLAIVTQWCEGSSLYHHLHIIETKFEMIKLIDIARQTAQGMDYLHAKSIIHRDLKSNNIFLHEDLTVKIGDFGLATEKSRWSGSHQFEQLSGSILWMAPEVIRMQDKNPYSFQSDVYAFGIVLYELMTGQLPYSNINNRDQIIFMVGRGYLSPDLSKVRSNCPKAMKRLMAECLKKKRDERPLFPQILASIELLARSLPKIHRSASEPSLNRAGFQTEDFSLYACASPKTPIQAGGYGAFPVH
The subject of assay [2] is Serine/threonine-protein kinase B-raf (Homo sapiens), P15056 [V600E]. Nature of the assay: Inhibition of BRAF V600E mutant at 1 uM by ELISA.
Assay [3] has the same test system. Description: Inhibition of BRAF V600E mutant at 10 uM by ELISA.

Sequence of Serine/threonine-protein kinase B-raf (Homo sapiens), P15056 [V600E] (P15056 whole entry V600E): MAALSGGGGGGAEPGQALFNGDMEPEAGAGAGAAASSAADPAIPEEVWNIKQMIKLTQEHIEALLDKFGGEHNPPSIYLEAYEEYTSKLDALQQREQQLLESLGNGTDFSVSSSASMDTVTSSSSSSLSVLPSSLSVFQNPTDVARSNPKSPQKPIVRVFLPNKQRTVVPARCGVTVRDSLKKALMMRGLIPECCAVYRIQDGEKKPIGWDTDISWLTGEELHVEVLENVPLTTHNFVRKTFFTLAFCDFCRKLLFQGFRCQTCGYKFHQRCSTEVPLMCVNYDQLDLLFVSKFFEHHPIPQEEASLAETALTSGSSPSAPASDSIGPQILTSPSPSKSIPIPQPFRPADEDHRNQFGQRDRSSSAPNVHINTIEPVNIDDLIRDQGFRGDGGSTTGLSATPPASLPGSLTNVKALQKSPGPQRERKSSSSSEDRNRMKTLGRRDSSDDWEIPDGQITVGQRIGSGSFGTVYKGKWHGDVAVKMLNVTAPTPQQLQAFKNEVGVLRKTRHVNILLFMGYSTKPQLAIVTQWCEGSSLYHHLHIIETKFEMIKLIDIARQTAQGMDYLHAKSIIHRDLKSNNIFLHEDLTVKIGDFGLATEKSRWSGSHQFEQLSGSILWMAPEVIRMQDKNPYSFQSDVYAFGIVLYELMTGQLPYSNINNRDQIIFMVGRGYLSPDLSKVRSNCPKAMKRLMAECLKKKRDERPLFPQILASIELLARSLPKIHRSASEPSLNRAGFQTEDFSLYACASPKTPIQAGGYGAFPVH

In general, IC50 refers to the concentration at which inhibition is half-maximal. Low readings indicate inhibition by little substance, high ones a need for much substance. One may read the inhibition as the change of the read-out against control, counted positive when it falls. A low value points to a response near the control. Consider `Cc1ccc(N2C(=O)/C(=C\c3ccc(-c4ccc(F)cc4)o3)C(=O)NC2=S)cc1`, for which half-maximal inhibition in assay [1] (IC50) was put at 4.11 µM. Also, the inhibition came to 13% in assay [2] and 74% in assay [3].

In assay [1], `CCOC(=O)c1ccccc1-c1ccc(/C=C2/C(=O)NC(=S)N(c3ccc(C)cc3)C2=O)o1` had an IC50 of 1.02 µM. For the same compound, the figures for the inhibition in assay [2] and in assay [3] were 56% and 88%, respectively.

In the case of `CCOc1ccc(C=C2C(=O)NC(=S)NC2=O)cc1Cl`, the results for the inhibition in assay [2] and in assay [3] were 12% and 71%, respectively.

`COc1cc(C=C2C(=O)NC(=S)NC2=O)ccc1OCCO`: the figures for the inhibition in assay [2] and in assay [3] were < 5% and 34%, respectively.

Consider `O=C1NC(=S)N(c2cccc(Cl)c2Cl)C(=O)/C1=C\c1ccc(-c2ccc(C(=O)O)cc2)o1`, for which the midpoint of inhibition in assay [1], the IC50, lay at 1.54 µM. The results for the inhibition in assay [2] and in assay [3] were 46% and 100%, respectively.

Take `COc1ccc(C=C2C(=O)NC(=S)NC2=O)cc1OCc1ccc(Br)cc1`: the inhibition is 12% in assay [2] and 87% in assay [3].

Consider `Cc1cccc(C)c1OCCOc1ccc(C=C2C(=O)NC(=S)NC2=O)cc1`, for which the inhibition was determined as 42% in assay [2] and 95% in assay [3].

For the compound `CS(=O)(=O)N(CCC#N)Cc1ccc(/C=C2/C(=O)NC(=S)N(c3ccc(Cl)c(Cl)c3)C2=O)o1`, half-maximal inhibition in assay [1] (IC50) required 0.82 µM. Further, the inhibition in assay [2] was 60%; in assay [3] it was 97%.

For the compound `COc1cc(C=C2C(=O)NC(=S)NC2=O)ccc1OCCC(C)C`, the inhibition stood at 21% in assay [2] and 81% in assay [3].

As to `O=C1NC(=S)NC(=O)C1=Cc1ccc(Oc2ccc([N+](=O)[O-])cn2)cc1`, the inhibition was < 5% in assay [2] and 41% in assay [3].

In the case of `Cc1ccc(N2C(=O)/C(=C\c3ccc(CN(CCC#N)S(C)(=O)=O)o3)C(=O)NC2=S)cc1Cl`, in assay [1], the 50% inhibitory concentration (IC50) was 0.31 µM. The inhibition came to 68% in assay [2] and 99% in assay [3].

`O=C1NC(=S)NC(=O)C1=Cc1ccc(-c2cccc([N+](=O)[O-])c2)o1` showed an IC50 in assay [1] of 0.83 µM. In addition, the inhibition in assay [2] stood at 48%; in assay [3], 85%.

For the compound `Cc1ccc(N2C(=O)/C(=C\c3ccc(CN(CCC#N)S(C)(=O)=O)o3)C(=O)NC2=S)cc1`, half-maximal inhibition in assay [1] (IC50) was put at 0.97 µM. In addition, the inhibition in assay [2] came to 48%; in assay [3] it was 99%.

As for `Cc1ccc(N2C(=O)/C(=C\c3ccc(-c4ccc(C(=O)O)c(Cl)c4)o3)C(=O)NC2=S)cc1`, the IC50 in assay [1] came to 3.24 µM. Further, the inhibition in assay [2] was found to be 28%; in assay [3], 99%.

On to `CCOc1cc(C=C2C(=O)NC(=S)NC2=O)ccc1O`, for which the values for the inhibition in assay [2] and in assay [3] were 15% and 68%, respectively.

`Cc1cccc(N2C(=O)/C(=C\c3ccc(CN(CCC#N)S(C)(=O)=O)o3)C(=O)NC2=S)c1` showed a half-maximal inhibitory concentration (IC50) in assay [1] of 0.5 µM. The inhibition amounted to 55% in assay [2] and 84% in assay [3].

For the compound `Cc1ccc(Cl)cc1-c1ccc(C=C2C(=O)NC(=S)NC2=O)o1`, the inhibition came to 54% in assay [2] and 75% in assay [3].

In turn, `O=C1NC(=S)N(c2ccc(Br)cc2)C(=O)/C1=C\c1ccc(-c2ccccc2C(=O)O)o1` showed an IC50 in assay [1] of 3.45 µM. For the same compound, the inhibition turned out to be 32% in assay [2] and 100% in assay [3].

In assay [1], `Cc1c(Cl)cccc1N1C(=O)/C(=C\c2ccc(-c3ccc(C(=O)O)cc3)o2)C(=O)NC1=S` displayed a half-maximal inhibitory concentration (IC50) of 2.49 µM. Also, the inhibition is 38% in assay [2] and 100% in assay [3].

Take `CCOc1cc(C=C2C(=O)NC(=S)NC2=O)ccc1OCC(=O)Nc1cccc(C)c1`: the results for the inhibition in assay [2] and in assay [3] were 23% and 81%, respectively.

Consider `O=C1NC(=S)NC(=O)C1=Cc1cccc(OC(=O)c2cccc(F)c2)c1`, for which the inhibition amounted to 17% in assay [2] and 19% in assay [3].

As for `COc1ccc(C=C2C(=O)NC(=S)NC2=O)cc1OC(=O)c1ccc(C)cc1`, the inhibition in assay [2] is < 5%; in assay [3], 38%.

With `Cc1ccc(N2C(=O)/C(=C\c3ccc(-c4ccc(C(=O)O)cc4)o3)C(=O)NC2=S)cc1`, the IC50 in assay [1] was 1.6 µM. For the same compound, the inhibition in assay [2] was found to be 35%; in assay [3] it was 97%.

Regarding `COC(=O)c1cc(Br)ccc1-c1ccc(C=C2C(=O)NC(=S)NC2=O)o1`, the inhibition in assay [2] worked out at 61%; in assay [3], 86%.

For the compound `O=C1NC(=S)N(c2ccc(Br)cc2)C(=O)/C1=C\c1ccc(-c2ccc(C(=O)O)cc2)o1`, the IC50 in assay [1] was determined as 2.23 µM. Besides, the inhibition in assay [2] stood at 38%; in assay [3], 97%.

On to `O=C1NC(=S)NC(=O)C1=Cc1ccc(-c2ccc([N+](=O)[O-])cc2)o1`, for which the IC50 in assay [1] was 0.73 µM. Further, the inhibition stood at 59% in assay [2] and 91% in assay [3].

On to `CC(C)COC(=O)c1ccc(-c2ccc(C=C3C(=O)NC(=S)NC3=O)o2)cc1`, for which the inhibition in assay [2] was determined as 31%; in assay [3], 37%.

Consider `CCCS(=O)(=O)Nc1ccc(F)c(C(=O)c2c[nH]c3ncc(-c4ccc(Cl)cc4)cc23)c1F`, for which the inhibition is 72% in assay [2] and 92% in assay [3].

In the case of `COc1cccc(N2C(=O)/C(=C\c3ccc(CN(CCC#N)S(C)(=O)=O)o3)C(=O)NC2=S)c1`, the IC50 in assay [1] came out at 1.84 µM. The inhibition in assay [2] is 32%; in assay [3], 74%.

As to `O=C1NC(=S)NC(=O)C1=Cc1ccc(OCc2ccccc2)c(Cl)c1`, the results for the inhibition in assay [2] and in assay [3] were 31% and 91%, respectively.

Turning to `COc1ccc(C=C2C(=O)NC(=S)NC2=O)cc1OC(=O)c1ccccc1`, the concentration for half-maximal inhibition (IC50) in assay [1] turned out to be 4.01 µM. Moreover, the inhibition was determined as 46% in assay [2] and 77% in assay [3].

With `Cc1ccc(N2C(=O)/C(=C\c3ccc(-c4ccc(Cl)c(C(=O)O)c4)o3)C(=O)NC2=S)cc1`, the inhibition in assay [2] amounted to 5%; in assay [3] it was 71%.

As to `O=C1NC(=S)NC(=O)C1=Cc1ccc(OCC(=O)N2CCCC2)cc1`, the inhibition in assay [2] turned out to be 9%; in assay [3] it was 52%.

Take `O=C1NC(=S)N(c2ccc(Br)cc2)C(=O)/C1=C\c1ccc(-c2ccc(C(=O)O)c(Cl)c2)o1`: it took 4.75 µM to reach half-maximal inhibition in assay [1] (IC50). In addition, the inhibition in assay [2] turned out to be 28%; in assay [3], 89%.

On to `O=C1NC(=S)NC(=O)C1=Cc1ccc(-c2ccccc2[N+](=O)[O-])o1`, for which it took 0.67 µM to reach half-maximal inhibition in assay [1] (IC50). In addition, the values for the inhibition in assay [2] and in assay [3] were 55% and 93%, respectively.

On to `Cc1ccc([N+](=O)[O-])cc1-c1ccc(C=C2C(=O)NC(=S)NC2=O)o1`, for which the figures for the inhibition in assay [2] and in assay [3] were 51% and 57%, respectively.

As for `COc1cc(C=C2C(=O)NC(=S)NC2=O)ccc1OC(F)F`, the values for the inhibition in assay [2] and in assay [3] were 14% and 17%, respectively.

In turn, `COC(=O)c1ccccc1-c1ccc(/C=C2/C(=O)NC(=S)N(c3ccc(C)cc3)C2=O)o1` displayed a half-inhibitory concentration (IC50) in assay [1] of 1.65 µM. Besides, the inhibition in assay [2] was 37%; in assay [3], 88%.

With `CCN(C)c1ccc(-c2ccc(C=C3C(=O)NC(=S)NC3=O)cc2)cc1`, the inhibition in assay [2] and in assay [3] was < 5% each time.

`COc1cc(C=C2C(=O)NC(=S)NC2=O)ccc1OC(=O)c1cccc(F)c1`: the inhibition in assay [2] is < 5%; in assay [3] it was 28%.

In assay [1], `Cc1ccc(N2C(=O)/C(=C\c3ccc(-c4cccc(C(=O)O)c4)o3)C(=O)NC2=S)cc1` displayed an IC50 of 4.02 µM. In addition, the inhibition in assay [2] turned out to be 33%; in assay [3] it was 98%.

Take `O=C1NC(=S)N(c2ccc(Br)cc2)C(=O)/C1=C\c1ccc(-c2cccc(C(=O)O)c2)o1`: in assay [1], half-maximal inhibition (IC50) was put at 1.8 µM. For the same compound, the inhibition in assay [2] was 43%; in assay [3] it was 100%.

`CS(=O)(=O)N(CCC#N)Cc1ccc(/C=C2/C(=O)NC(=S)N(c3ccc(Br)cc3)C2=O)o1` gave an IC50 in assay [1] of 0.44 µM. For the same compound, the inhibition in assay [2] stood at 88%; in assay [3] it was 96%.

For the compound `COc1ccc(C=C2C(=O)NC(=S)NC2=O)cc1OC(=O)c1cccc(Cl)c1`, the figures for the inhibition in assay [2] and in assay [3] were 9% and 88%, respectively.

As to `CCOc1ccc(N2C(=O)/C(=C\c3ccc(CN(CCC#N)S(C)(=O)=O)o3)C(=O)NC2=S)cc1`, the 50% inhibitory concentration (IC50) in assay [1] was 1.14 µM. Moreover, the inhibition in assay [2] worked out at 43%; in assay [3], 91%.

With `N#Cc1ccccc1-c1ccc(C=C2C(=O)NC(=S)NC2=O)o1`, the IC50 in assay [1] was determined as 0.74 µM. The inhibition stood at 60% in assay [2] and 93% in assay [3].
